Laboratory results from PubChem BioAssay AID248 (DTP/NCI, 2004).
Values joined by “and” are separate entries in the source; they are usually repeats but may differ in a detail not shown here. Equal entries are not always repeated. Toxic doses and inconclusive results are not listed. No stated cut-off is given here; in the data, active means T/C of 150% or more; inactive means T/C below 125%.

System: L1210 leukemia ip in BDF1 mice, survival T/C
Assay: NCI In Vivo Anticancer Drug Screen. Data for tumor model L1210 Leukemia (intraperitoneal) in B6D2F1 (BDF1) mice
Conditions: endpoint: mean survival time, higher = longer survival
Outline: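 Ratio derived from survival: compound-dosed mice over vehicle-dosed mice, all bearing a transplantable tumor.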

[1] = dose: 100.0 mg/kg/injection, schedule: Q04DX003 (ip), vehicle: saline
[2] = dose: 100.0 mg/kg/injection, schedule: Q01DX009 (ip), vehicle: Klucel (hydroxypropylcellulose) (HPC)
[3] = dose: 200.0 mg/kg/injection, schedule: Q01DX009 (ip), vehicle: Klucel (hydroxypropylcellulose) (HPC)
[4] = dose: 75.0 mg/kg/injection, schedule: Q01DX001 (ip), vehicle: saline
[5] = dose: 100.0 mg/kg/injection, schedule: Q01DX009 (ip), vehicle: gum acacia
[6] = dose: 100.0 mg/kg/injection, schedule: Q04DX003 (ip), vehicle: gum acacia
[7] = dose: 200.0 mg/kg/injection, schedule: Q01DX009 (ip), vehicle: gum acacia
[8] = dose: 200.0 mg/kg/injection, schedule: Q04DX003 (ip), vehicle: gum acacia
[9] = dose: 400.0 mg/kg/injection, schedule: Q01DX009 (ip), vehicle: gum acacia
[10] = dose: 400.0 mg/kg/injection, schedule: Q04DX003 (ip), vehicle: gum acacia
[11] = dose: 100.0 mg/kg/injection, schedule: Q04DX002 (ip), vehicle: saline with Tween-80
[12] = dose: 200.0 mg/kg/injection, schedule: Q04DX002 (ip), vehicle: saline with Tween-80
[13] = dose: 100.0 mg/kg/injection, schedule: Q01DX009 (ip), vehicle: saline with Tween-80
[14] = dose: 200.0 mg/kg/injection, schedule: Q01DX009 (ip), vehicle: saline with Tween-80
[15] = dose: 400.0 mg/kg/injection, schedule: Q01DX009 (ip), vehicle: saline with Tween-80
[16] = dose: 100.0 mg/kg/injection, schedule: Q04DX003 (ip), vehicle: saline with Tween-80
[17] = dose: 200.0 mg/kg/injection, schedule: Q04DX003 (ip), vehicle: saline with Tween-80
[18] = dose: 400.0 mg/kg/injection, schedule: Q04DX003 (ip), vehicle: saline with Tween-80

Measured: T/C

CN(C)CC/C=C1/c2ccccc2COc2ccccc21
inactive: dose: 6.12 mg/kg/injection, schedule: Q01DX001 (ip), vehicle: water 111 % of control | dose: 6.25 mg/kg/injection, schedule: Q01DX009 (ip), vehicle: saline 103 % of control | dose: 12.5 mg/kg/injection, schedule: Q01DX001 (ip), vehicle: water 113 % of control | dose: 12.5 mg/kg/injection, schedule: Q01DX009 (ip), vehicle: saline 107 % of control | dose: 25.0 mg/kg/injection, schedule: Q01DX001 (ip), vehicle: water 103 % of control | dose: 25.0 mg/kg/injection, schedule: Q01DX009 (ip), vehicle: saline 101 % of control | dose: 25.0 mg/kg/injection, schedule: Q04DX003 (ip), vehicle: saline 109 % of control | dose: 50.0 mg/kg/injection, schedule: Q01DX009 (ip), vehicle: saline 113 % of control | dose: 50.0 mg/kg/injection, schedule: Q04DX003 (ip), vehicle: saline 101 % of control | [1] 93 % of control

CC1CC(=O)c2ccccc2N1S(C)(=O)=O (stereo unspecified)
inactive: [2] 95 % of control | dose: 100.0 mg/kg/injection, schedule: Q04DX003 (ip), vehicle: Klucel (hydroxypropylcellulose) (HPC) 102 % of control | [3] 95 % of control | dose: 200.0 mg/kg/injection, schedule: Q04DX003 (ip), vehicle: Klucel (hydroxypropylcellulose) (HPC) 102 % of control | dose: 400.0 mg/kg/injection, schedule: Q01DX009 (ip), vehicle: Klucel (hydroxypropylcellulose) (HPC) 101 % of control | dose: 400.0 mg/kg/injection, schedule: Q04DX003 (ip), vehicle: Klucel (hydroxypropylcellulose) (HPC) 94 % of control

N#Cc1ccccc1NC(=S)Nc1ccc([N+](=O)[O-])cc1
inactive: dose: 12.5 mg/kg/injection, schedule: Q01DX009 (ip), vehicle: saline with Tween-80 95 % of control | dose: 25.0 mg/kg/injection, schedule: Q01DX009 (ip), vehicle: saline with Tween-80 100 % of control | dose: 50.0 mg/kg/injection, schedule: Q01DX009 (ip), vehicle: saline with Tween-80 95 % of control and 88 % of control

O=C(O)C1CC/C=C\CCC1 (stereo unspecified)
inactive: dose: 100.0 mg/kg/injection, schedule: Q01DX009 (sc), vehicle: olive oil, sesame oil, peanut oil 99 % of control | dose: 100.0 mg/kg/injection, schedule: Q04DX003 (sc), vehicle: olive oil, sesame oil, peanut oil 109 % of control | dose: 200.0 mg/kg/injection, schedule: Q01DX009 (sc), vehicle: olive oil, sesame oil, peanut oil 89 % of control | dose: 200.0 mg/kg/injection, schedule: Q04DX003 (sc), vehicle: olive oil, sesame oil, peanut oil 106 % of control | dose: 400.0 mg/kg/injection, schedule: Q01DX009 (sc), vehicle: olive oil, sesame oil, peanut oil 88 % of control | dose: 400.0 mg/kg/injection, schedule: Q04DX003 (sc), vehicle: olive oil, sesame oil, peanut oil 97 % of control

CC/C=C(/C)C(C#N)(C(=O)O)C(C)C (stereo unspecified)
inactive: [4] 98 % of control | dose: 150.0 mg/kg/injection, schedule: Q01DX001 (ip), vehicle: saline 104 % of control | dose: 300.0 mg/kg/injection, schedule: Q01DX001 (ip), vehicle: saline 94 % of control

N#CCc1ccccc1C(=O)O
inactive: [5] 105 % of control | [6] 96 % of control | [7] 94 % of control | [8] 91 % of control | [9] 88 % of control | [10] 97 % of control

CCNC(=S)NC1CCCCCCCCCCC1
inactive: [11] 94 % of control | [12] 87 % of control

CN(C)c1ccc(/C=N/NC(=O)C2CCCO2)c(Cl)c1 (stereo unspecified)
inactive: [2] 102 % of control | [3] 98 % of control

Nc1cncc2ncc(-c3ccc(Cl)cc3)nc12
inactive: dose: 50.0 mg/kg/injection, schedule: Q01DX001 (ip), vehicle: other 105 % of control | dose: 100.0 mg/kg/injection, schedule: Q01DX001 (ip), vehicle: other 100 % of control | dose: 200.0 mg/kg/injection, schedule: Q01DX001 (ip), vehicle: other 94 % of control | dose: 400.0 mg/kg/injection, schedule: Q01DX001 (ip), vehicle: other 96 % of control

CCc1cccc(CC)c1NC(=O)/C=C/C(=O)O
inactive: [11] 93 % of control | [12] 100 % of control | dose: 400.0 mg/kg/injection, schedule: Q04DX002 (ip), vehicle: saline with Tween-80 96 % of control

CN(C)S(=O)(=O)c1ccc(Nc2ccc(O)c3c2C(=O)c2c([N+](=O)[O-])ccc(O)c2C3=O)cc1
inactive: dose: 75.0 mg/kg/injection, schedule: Q01DX001 (ip), vehicle: steriod suspending solution 98 % of control | dose: 150.0 mg/kg/injection, schedule: Q01DX001 (ip), vehicle: steriod suspending solution 98 % of control | dose: 300.0 mg/kg/injection, schedule: Q01DX001 (ip), vehicle: steriod suspending solution 100 % of control

Ic1cccc(Oc2ccccc2)c1
inactive: [13] 114 % of control | [14] 91 % of control

COC(=O)C1OC(n2cnc3c(=S)nc[nH]c32)C(OC(C)=O)C(OC(C)=O)C1OC(C)=O (stereo unspecified)
inactive: dose: 50.0 mg/kg/injection, schedule: Q01DX001 (ip), vehicle: carboxymethylcellulose (CMC) 103 % of control | dose: 100.0 mg/kg/injection, schedule: Q01DX001 (ip), vehicle: carboxymethylcellulose (CMC) 100 % of control | dose: 200.0 mg/kg/injection, schedule: Q01DX001 (ip), vehicle: carboxymethylcellulose (CMC) 100 % of control | dose: 400.0 mg/kg/injection, schedule: Q01DX001 (ip), vehicle: carboxymethylcellulose (CMC) 94 % of control

Cc1c2c(cc3c1[nH]c1ccccc13)C(c1ccc(Cl)cc1)=NCC2
inactive: [13] 87 % of control | [14] 87 % of control | [15] 88 % of control

CCCCOC(=O)Nc1ccc(N)c(NC(=O)OCCCC)n1
inactive: [5] 88 % of control | [6] 99 % of control | [7] 93 % of control | [8] 99 % of control | [9] 91 % of control | [10] 97 % of control

Cc1[nH]nc(C(=O)N(C)C)c1N=NN(C)C
inactive: [4] 116 % of control

CCCCCCCCOc1ccccn1
inactive: [13] 110 % of control | [16] 100 % of control | [14] 91 % of control | [17] 105 % of control | [18] 103 % of control

NC1CC2CCC1C2 (stereo unspecified)
inactive: dose: 50.0 mg/kg/injection, schedule: Q01DX001 (ip), vehicle: saline with Tween-80 98 % of control | dose: 50.0 mg/kg/injection, schedule: Q04DX002 (ip), vehicle: saline 93 % of control | dose: 100.0 mg/kg/injection, schedule: Q01DX001 (ip), vehicle: saline with Tween-80 98 % of control | dose: 100.0 mg/kg/injection, schedule: Q04DX002 (ip), vehicle: saline 100 % of control | dose: 200.0 mg/kg/injection, schedule: Q01DX001 (ip), vehicle: saline with Tween-80 103 % of control

O=c1cc(Cc2ccc(F)cc2)[nH]c(=O)[nH]1
inactive: dose: 25.0 mg/kg/injection, schedule: Q01DX001 (ip), vehicle: Klucel (hydroxypropylcellulose) (HPC) 97 % of control | dose: 50.0 mg/kg/injection, schedule: Q01DX001 (ip), vehicle: Klucel (hydroxypropylcellulose) (HPC) 101 % of control | dose: 100.0 mg/kg/injection, schedule: Q01DX001 (ip), vehicle: Klucel (hydroxypropylcellulose) (HPC) 96 % of control

CC1CC(C)(C)N=C(C(Cc2ccc(Br)cc2)c2ccccc2)O1 (stereo unspecified)
inactive: [16] 97 % of control | [17] 92 % of control | [18] 95 % of control

CCN(CC)CCOC(=O)c1cc(=O)n(CCC(C)C)c2ccccc12
inactive: [1] 113 % of control | dose: 200.0 mg/kg/injection, schedule: Q04DX003 (ip), vehicle: saline 107 % of control | dose: 400.0 mg/kg/injection, schedule: Q04DX003 (ip), vehicle: saline 101 % of control

FC1(F)SC2c3cccc4cccc(c34)C2C1(F)F (stereo unspecified)
inactive: [13] 102 % of control | [14] 104 % of control | [15] 96 % of control
